In patent US20260256738A1, “METHODS OF TREATING CANCER WITH A RAS MUTATION” (Immuneering Corporation, priority 2023, published 2026):

Columns and labels:
[1] = Human plasma pharmacokinetics of approved MEK inhibitors; assay type: in vivo; details: human dosing cycle
[2] = cited from earlier work
[3] = Plasma Stability (% remaining @2 hour); assay type: in vitro ADME; details: CD-1 Mouse; 2 μM
[4] = Plasma Stability (% remaining @2 hour); assay type: in vitro ADME; details: Beagle Dog; 2 μM
[5] = Plasma Stability (% remaining @2 hour); assay type: in vitro ADME; details: SD Rat; 2 μM
[6] = Plasma Stability (% remaining @2 hour); assay type: in vitro ADME; details: Human; 2 μM
CYP450 2C19 = CYP450 2C19 (Homo sapiens, UniProt P33261); test: CYP450 Panel; assay type: in vitro ADME; details: 10 μM; substrate mephenytoin; in % (unit assumed)
CYP450 2C8 = target: T1, CYP450 2C8 (Homo sapiens, UniProt P10632); test: CYP450 Panel; assay type: in vitro ADME; details: 10 μM; substrate amodiaquine
T1 sequence (P10632 1-490): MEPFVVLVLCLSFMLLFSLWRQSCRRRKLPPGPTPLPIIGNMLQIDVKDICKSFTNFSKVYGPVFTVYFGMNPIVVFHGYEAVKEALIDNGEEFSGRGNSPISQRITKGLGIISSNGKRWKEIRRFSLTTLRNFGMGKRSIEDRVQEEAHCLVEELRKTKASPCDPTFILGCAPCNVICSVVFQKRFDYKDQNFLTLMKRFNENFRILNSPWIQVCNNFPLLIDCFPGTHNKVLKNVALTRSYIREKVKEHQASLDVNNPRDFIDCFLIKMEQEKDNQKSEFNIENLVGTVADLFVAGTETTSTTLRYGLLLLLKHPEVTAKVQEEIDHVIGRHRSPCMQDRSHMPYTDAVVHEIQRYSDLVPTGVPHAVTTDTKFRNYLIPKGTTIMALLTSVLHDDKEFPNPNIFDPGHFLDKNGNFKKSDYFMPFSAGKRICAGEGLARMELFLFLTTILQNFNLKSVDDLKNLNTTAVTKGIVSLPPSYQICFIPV

Caco-2 = Caco-2 permeability; details: 10 μM, 2 hrs
CYP450 1A2 = target: T2, CYP450 1A2 (Homo sapiens, UniProt P05177); test: CYP450 Panel; details: 10 μM; substrate phenacetin; in % (unit assumed)
T2 sequence (P05177 1-516): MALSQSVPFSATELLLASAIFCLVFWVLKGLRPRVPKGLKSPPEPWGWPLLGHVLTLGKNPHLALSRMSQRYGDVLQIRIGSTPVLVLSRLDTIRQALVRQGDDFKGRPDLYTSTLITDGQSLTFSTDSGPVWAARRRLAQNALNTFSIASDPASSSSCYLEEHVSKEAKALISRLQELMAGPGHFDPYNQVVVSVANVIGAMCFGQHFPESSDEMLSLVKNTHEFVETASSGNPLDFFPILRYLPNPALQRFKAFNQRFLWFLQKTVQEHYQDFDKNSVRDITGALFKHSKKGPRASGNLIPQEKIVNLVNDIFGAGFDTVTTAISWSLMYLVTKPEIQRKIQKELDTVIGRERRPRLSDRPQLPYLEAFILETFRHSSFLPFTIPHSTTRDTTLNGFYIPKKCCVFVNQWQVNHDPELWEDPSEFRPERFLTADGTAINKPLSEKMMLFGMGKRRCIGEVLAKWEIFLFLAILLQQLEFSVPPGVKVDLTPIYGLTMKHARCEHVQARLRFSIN

[7] = Tissue pharmacokinetics in Colon-26 tumor bearing mice, 2-hour post dose; assay type: in vivo; details: single dose 100 mg/kg p.o.
Protocol: Female mice (either athymic BALC/c nude, or BALB/c mice) were inoculated with a single subcutaneous injection of 0.2 ml of mouse Colon-26 cell suspension (1×10^5 cells per animal) in the inguinal region. Colon26 (C26) tumor bearing mice received a single dose (3 mice/treatment) of vehicle (10% DMSO/90% [20% SBE-R-CD in saline], pH 5) containing compounds at 100 mg/kg by gavage (p.o.) and 2-hour post dose humanely euthanized.
Blood was obtained through cardiac puncture into K+EDTA tubes, mixed by inversion and centrifuged to obtain the plasma. Tissues were excised, cleaned of surrounding tissues. All samples immediately snap frozen in liquid N2 prior to LC-MS/MS analysis (using Waters HSS T3 2.1×50 mm (1.8 um) LC column, and an API-6500 Electrospray MS unit).

[8] = Microsome Stability (% remaining @1 hour); assay type: in vitro ADME; details: SD Rat; 2 μM
[9] = Microsome Stability (% remaining @1 hour); assay type: in vitro ADME; details: Human; 2 μM
[10] = eLogD (lipophilicity; pH=7.4); assay type: physicochemical
Protocol: Test compounds were dissolved in DMSO at a concentration of 10 mM and further diluted with methanol:water 1:1. Samples were analyzed using gradient HPLC with three different isocratic mobile phases of 0.25% octanol in methanol (60, 65 and 70%) and 20 mM MOPS buffer (pH 7.4) with decylamine. If needed, (for low E log Doct compounds) the isocratic mobile phases were adjusted to e.g. 40, 45 and 50% methanol. Peaks were detected using a diode array at absorbance 220-320 nm.
Capacity factors data (k′_(tr−_t0)/t0) obtained at various amounts of methanol were extrapolated to 0% methanol and k′w values are determined using a linear procedure. E log Doct (7.4) is calculated using a series of reference standards with known Log D values. Each experiment was performed in triplicate.

CYP450 2D6 = CYP450 2D6 (Homo sapiens, UniProt P10635); test: CYP450 Panel; details: 10 μM; substrate dextromethorphan; in % (unit assumed)
[11] = Microsome Stability (% remaining @1 hour); details: CD-1 Mouse; 2 μM
[12] = Microsome Stability (% remaining @1 hour); assay type: in vitro ADME; details: Beagle Dog; 2 μM
CYP450 3A4 = CYP450 3A4 (Homo sapiens, UniProt P08684); test: CYP450 Panel; assay type: in vitro ADME; details: 10 μM
CYP450 2C9 = CYP450 2C9 (Homo sapiens, UniProt P11712); test: CYP450 Panel; assay type: in vitro ADME; details: 10 μM; substrate Diclofenac; in % (unit assumed)
Sequence of CYP450 2C9 (P11712 whole entry): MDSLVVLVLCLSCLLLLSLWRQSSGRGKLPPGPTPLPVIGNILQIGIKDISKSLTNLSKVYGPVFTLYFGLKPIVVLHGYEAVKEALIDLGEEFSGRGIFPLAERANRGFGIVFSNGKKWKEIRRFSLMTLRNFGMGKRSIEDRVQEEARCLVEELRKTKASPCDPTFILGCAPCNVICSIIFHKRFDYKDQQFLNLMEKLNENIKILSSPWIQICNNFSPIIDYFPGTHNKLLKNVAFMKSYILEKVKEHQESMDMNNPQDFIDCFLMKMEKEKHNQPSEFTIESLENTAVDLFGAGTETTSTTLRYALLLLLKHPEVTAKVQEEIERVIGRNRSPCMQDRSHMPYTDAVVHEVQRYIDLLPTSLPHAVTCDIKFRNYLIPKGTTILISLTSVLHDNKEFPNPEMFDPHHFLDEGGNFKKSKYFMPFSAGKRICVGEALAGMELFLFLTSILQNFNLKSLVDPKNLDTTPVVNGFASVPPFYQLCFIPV

Sequence of CYP450 2C19 (P33261 whole entry): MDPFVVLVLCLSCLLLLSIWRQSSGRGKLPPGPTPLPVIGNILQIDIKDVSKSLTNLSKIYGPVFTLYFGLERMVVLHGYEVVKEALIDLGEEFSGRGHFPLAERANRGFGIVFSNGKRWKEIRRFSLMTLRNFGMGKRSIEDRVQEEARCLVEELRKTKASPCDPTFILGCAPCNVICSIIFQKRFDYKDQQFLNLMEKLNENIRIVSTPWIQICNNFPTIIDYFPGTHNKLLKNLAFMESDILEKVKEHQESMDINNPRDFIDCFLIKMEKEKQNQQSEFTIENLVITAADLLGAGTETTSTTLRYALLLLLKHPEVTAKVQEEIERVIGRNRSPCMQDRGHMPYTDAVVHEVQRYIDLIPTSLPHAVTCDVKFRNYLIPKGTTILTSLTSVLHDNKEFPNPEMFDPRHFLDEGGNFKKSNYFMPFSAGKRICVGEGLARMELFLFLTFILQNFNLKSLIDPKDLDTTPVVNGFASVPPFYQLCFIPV
Sequence of CYP450 3A4 (P08684 whole entry): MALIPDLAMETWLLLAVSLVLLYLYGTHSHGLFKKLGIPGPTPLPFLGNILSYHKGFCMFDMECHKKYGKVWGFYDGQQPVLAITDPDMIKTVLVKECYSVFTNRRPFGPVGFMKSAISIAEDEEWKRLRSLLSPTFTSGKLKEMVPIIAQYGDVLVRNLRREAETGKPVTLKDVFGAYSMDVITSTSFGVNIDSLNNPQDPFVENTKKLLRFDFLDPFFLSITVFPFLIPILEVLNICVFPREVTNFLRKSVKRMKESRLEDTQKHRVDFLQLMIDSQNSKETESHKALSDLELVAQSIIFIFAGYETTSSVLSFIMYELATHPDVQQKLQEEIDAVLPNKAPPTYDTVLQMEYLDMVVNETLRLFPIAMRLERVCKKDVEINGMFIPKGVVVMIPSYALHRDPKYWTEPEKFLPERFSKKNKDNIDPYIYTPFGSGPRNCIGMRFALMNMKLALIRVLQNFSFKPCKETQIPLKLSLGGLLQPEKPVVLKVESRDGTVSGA
Sequence of CYP450 2D6 (P10635 whole entry): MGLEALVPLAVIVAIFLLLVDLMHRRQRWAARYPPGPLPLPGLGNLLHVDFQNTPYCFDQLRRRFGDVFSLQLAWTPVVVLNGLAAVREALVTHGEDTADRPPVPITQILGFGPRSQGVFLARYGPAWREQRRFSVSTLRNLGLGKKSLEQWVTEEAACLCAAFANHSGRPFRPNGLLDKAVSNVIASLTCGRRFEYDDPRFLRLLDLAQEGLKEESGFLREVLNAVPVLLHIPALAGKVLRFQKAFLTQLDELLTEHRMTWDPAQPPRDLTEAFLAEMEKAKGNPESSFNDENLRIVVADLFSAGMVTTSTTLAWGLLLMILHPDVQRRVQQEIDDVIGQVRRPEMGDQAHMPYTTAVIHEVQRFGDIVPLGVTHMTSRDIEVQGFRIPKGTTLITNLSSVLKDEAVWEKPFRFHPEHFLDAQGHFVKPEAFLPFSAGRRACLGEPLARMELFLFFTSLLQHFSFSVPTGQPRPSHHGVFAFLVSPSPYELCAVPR

## Cn1cnc2c(F)c(Nc3ccc(Br)cc3F)c(C(=O)NOCCO)cc21 [Binimetinib]
[1]
  half-lives per (BID) cycle: ≤ 3.4 half-lives
[2]; in vivo
  half-life: 3.5 h

## CC[C@H](C)C(=O)O[C@H]1C[C@@H](C)C=C2C=C[C@H](C)[C@H](CC[C@@H]3C[C@@H](O)CC(=O)O3)[C@H]21 [Lovastatin]
[3]
  Plasma stability, % Remaining @2 hour: 0.6%
[4]
  Plasma stability, % Remaining @2 hour: 94.1%
[5]
  Plasma stability, % Remaining @2 hour: 0.6%
[6]
  Plasma stability, % Remaining @2 hour: 81.8%

## COc1ccc2[nH]c([S+]([O-])Cc3ncc(C)c(OC)c3C)nc2c1 (centres unmarked) [Omeprazole]
CYP450 2C19
  CYP450 Panel 2C19: 61.6

## CC(C)[N+](C)(CCOC(=O)C1c2ccccc2Oc2ccccc21)C(C)C [Propantheline]
[3]
  Plasma stability, % Remaining @2 hour: 27.1%
[4]
  Plasma stability, % Remaining @2 hour: 58.4%
[5]
  Plasma stability, % Remaining @2 hour: 92.6%
[6]
  Plasma stability, % Remaining @2 hour: 5.7%

## O=c1c(O)c(-c2ccc(O)c(O)c2)oc2cc(O)cc(O)c12 [Quercetin]
CYP450 2C8
  CYP450 Panel 2C8: 93.1%

## CNC(=C[N+](=O)[O-])NCCSCc1ccc(CN(C)C)o1 [Ranitidine]
Caco-2
  A − B Permeability Ranking: Low

## CNS(=O)(=O)Nc1nccc(Cc2c(C)c3ccc(Oc4ncccn4)cc3oc2=O)c1F [Reference 2]
CYP450 1A2
  CYP450 Panel 1A2: 0.8
[7]
  Liver concentration: 1990 ng/g
  Muscle concentration: 550 ng/g
  Plasma concentration: 5670 ng/mL
  Tumor concentration: 819 ng/g
[8]
  Microsome stability, % Remaining @1 hour: 102.0%
[9]
  Microsome stability, % Remaining @1 hour: 107.1%
[3]
  Plasma stability, % Remaining @2 hour: 92.9%
[4]
  Plasma stability, % Remaining @2 hour: 99.8%
CYP450 2C19
  CYP450 Panel 2C19: −0.9
Caco-2
  A − B Permeability Ranking: High
[10]
  eLogD (lipophilicity; pH = 7.4): 3.6
CYP450 2D6
  CYP450 Panel 2D6: 3.4
[11]
  Microsome stability, % Remaining @1 hour: 96.0%
[5]
  Plasma stability, % Remaining @2 hour: 99.8%
[12]
  Microsome stability, % Remaining @1 hour: 111.6%
CYP450 3A4; substrate midazolam
  CYP450 Panel 3A4 (midazolam): 16.6%
CYP450 3A4; substrate testosterone
  CYP450 Panel 3A4 (testosterone): 15.7%
[6]
  Plasma stability, % Remaining @2 hour: 91.1%

## Nc1ccc(S(=O)(=O)Nc2ccnn2-c2ccccc2)cc1 [Sulfaphenazole]
CYP450 2C9
  CYP450 Panel 2C9: 101.2

## O=C(c1ccc(F)c(F)c1Nc1ccc(I)cc1F)N1CC(O)([C@@H]2CCCCN2)C1 [cobimetinib]
[1]
  half-lives per (BID) cycle: ≤ 0.55 half-lives
[2]; human
  Tmax: 2.4 h
  human plasma half-life: 44 h

## CC(=O)Nc1cccc(-n2c(=O)n(C3CC3)c(=O)c3c(Nc4ccc(I)cc4F)n(C)c(=O)c(C)c32)c1 [trametinib]
[1]
  half-lives per (BID) cycle: ≤ 0.25 half-lives
[2]; human
  human plasma half-life: 96 h
